Experimental data published in US20250140406A1, “CLASSIFYING TUMORS AND PREDICTING RESPONSIVENESS” (Oncocyte Corporation, priority 2022, published 2025).

Assays:
[1] = test system: NSCLC cell lines (xenograft models); details: of the 10 NSCLC cell lines, GSE109302; cited from earlier work
[2] = test system: Representative Cell Lines of TNBC tumor subtypes; details: TNBC subtypes from Lehmann et al.; cited from earlier work
[3] = test system: cancer cell lines classified IM, MSL, M; test: Cancer Therapeutics Response Portal (CTRP) small-molecule sensitivity correlated with IM, MSL and M subtype; assay type: cell-based; details: CTRP and PRISM screens; IM class by 101 gene signature
Protocol: Compound correlations where the correlation was negative, indicating sensitivity to the compound, and with a q value less than 0.05 were assessed.

[4] = test system: cancer cell lines classified IM, MSL, M; test: PRISM screen compound sensitivity correlated with IM, MSL and M subtype of cell lines (101 gene signature); assay type: cell-based; details: test cell set (188 cell lines)
[5] = test system: cancer cell lines, DetermaIO classes; test: Association of PRISM compound sensitivity with DetermaIO (DTIO) cell line classes; assay type: cell-based
[6] = test system: cancer cell lines; test: Correlation of gene expression with PRISM compound sensitivity across cell lines (gene:compound correlate pairs); assay type: cell-based; set-up: key: Pearson correlation of gene expression with compound sensitivity; details: for compound gene test corr: test cell lines; for compound gene train corr: training cell lines
Protocol: This list of genes (based upon gene expression and gene dependency) was analyzed by Pearson correlation with the compound sensitivity data across the training cell lines. Correlation values, p values, q values and local false discovery rates were calculated. This analysis was repeated using the same set of compounds and genes on the test set of cell lines.
A negative correlation means that the importance of the expression of that gene to cell health was linked to increased compound sensitivity. • compound gene dep train pvalue: Measure of significance for this association. • compound gene dep test corr: Correlation of gene dependency with compound sensitivity in the test data set. • TNBCType train: Classification of association of the compound sensitivity with the IM, MSL and M cell line classes in the training data set. • DTIO Corr train: Association of the compound sensitivity with the DetermaIO cell line classes in the training data set. • TNBCType test: Classification of the association of the compound sensitivity with the IM, MSL and M cell line classes in the test data set. • DTIO Corr test: Association of the compound sensitivity with the DetermaIO cell line classes in the test data set.

Structure (SMILES): COc1cc(C(=O)NC2CCN(C)CC2)c(F)cc1Nc1ncc(C(F)(F)F)c(Oc2cccc3c2C(=O)N(C)C3)n1 [BI 853520]
- Number of NSCLC cell lines resistant to the drug [1]: five
- Number of NSCLC cell lines sensitive to the drug [1]: five

Structure (SMILES): CC(O)(CS(=O)(=O)c1ccc(F)cc1)C(=O)Nc1ccc(C#N)c(C(F)(F)F)c1 (centres unmarked) [Bicalutimide]
- Tumor subtype whose representative cell lines respond to the treatment [2]: LAR

Structure (SMILES): N.N.[Cl][Pt][Cl] [Cisplatin]
- Tumor subtype whose representative cell lines respond to the treatment [2]: BL1 and BL2

Structure (SMILES): Cc1nc(Nc2ncc(C(=O)Nc3c(C)cccc3Cl)s2)cc(N2CCN(CCO)CC2)n1 [Dasantinib]
- Tumor subtype whose representative cell lines respond to the treatment [2]: M and MSL

Structure (SMILES): Cn1c(=O)n(-c2ccc(C(C)(C)C#N)cc2)c2c3cc(-c4cnc5ccccc5c4)ccc3ncc21 [NVP-BEX235]
- Tumor subtype whose representative cell lines respond to the treatment [2]: M and MSL

Structure (SMILES): C=CC(=O)Nc1cc2c(Nc3ccc(F)c(Cl)c3)ncnc2cc1OCCCN1CCOCC1 [canertinib]
- Sensitivity of tumors of the IM class to the compound [3]: especially sensitive

Structure (SMILES): CS(=O)(=O)CCNCc1ccc(-c2ccc3ncnc(Nc4ccc(OCc5cccc(F)c5)c(Cl)c4)c3c2)o1 [lapatinib]
- Sensitivity of tumors of the IM class to the compound [3]: especially sensitive

Structure (SMILES): CC1(S(=O)(=O)[O-])CC(=O)c2ccccc2C1=O.[Na+] (centres unmarked) [menadione-bisulfite]
- IM Corr test ([4]; correlation of PRISM compound sensitivity with IM subtype correlation): 0.1925
- M Corr test ([4]; correlation of PRISM compound sensitivity with M subtype correlation): −0.2026
- MSL Corr test ([4]; correlation of PRISM compound sensitivity with MSL subtype correlation): −0.1086
- DTIO Corr test ([5]; correlation of PRISM compound sensitivity with DTIO, test cell set): 0.1362
- DTIO Corr train ([5]; correlation of PRISM compound sensitivity with DTIO, training cell set): 0.003549
- DTIO Corr test ([5]; test set): 0.1362
- DTIO Corr train ([5]; training set): 0.003549
- compound gene test corr ([6]; gene CHL1): −0.2459
- compound gene train corr ([6]; gene CHL1): −0.1641
- compound gene test corr ([6]; gene COL19A1): −0.2615
- compound gene train corr ([6]; gene COL19A1): −0.2071
- compound gene test corr ([6]; gene DSTYK): −0.2853
- compound gene train corr ([6]; gene DSTYK): −0.1942
- compound gene test corr ([6]; gene FCGR2A): −0.2554
- compound gene train corr ([6]; gene FCGR2A): −0.1722
- compound gene test corr ([6]; gene FCRLA): −0.2647
- compound gene train corr ([6]; gene FCRLA): −0.2401
- compound gene test corr ([6]; gene GHR): −0.2974
- compound gene train corr ([6]; gene GHR): −0.1701
- compound gene test corr ([6]; gene LUM): −0.3259
- compound gene train corr ([6]; gene LUM): −0.1958
- compound gene test corr ([6]; gene LZTS1): −0.3133
- compound gene train corr ([6]; gene LZTS1): −0.1907
- compound gene test corr ([6]; gene NCKAP5L): −0.3161
- compound gene train corr ([6]; gene NCKAP5L): −0.1648
- compound gene test corr ([6]; gene P2RX7): −0.2585
- compound gene train corr ([6]; gene P2RX7): −0.2054
- compound gene test corr ([6]; gene PLEKHO1): −0.2511
- compound gene train corr ([6]; gene PLEKHO1): −0.1601
- compound gene test corr ([6]; gene PLEKHO2): −0.3003
- compound gene train corr ([6]; gene PLEKHO2): −0.2127
- compound gene test corr ([6]; gene PLP1): −0.2422
- compound gene train corr ([6]; gene PLP1): −0.2332
- compound gene test corr ([6]; gene PLPP7): −0.2843
- compound gene train corr ([6]; gene PLPP7): −0.1831
- compound gene test corr ([6]; gene QKI): −0.2736
- compound gene train corr ([6]; gene QKI): −0.2164
- compound gene test corr ([6]; gene SYNM): −0.2591
- compound gene train corr ([6]; gene SYNM): −0.1742
- compound gene test corr ([6]; gene TAMALIN): −0.254
- compound gene train corr ([6]; gene TAMALIN): −0.1641
- compound gene test corr ([6]; gene WWTR1): −0.2508
- compound gene train corr ([6]; gene WWTR1): −0.1794
- compound gene test corr ([6]; gene ZCCHC24): −0.3161
- compound gene train corr ([6]; gene ZCCHC24): −0.1708
